The subject of the assay is ApoA-I mRNA. Nature of the assay: Quantification of ApoA-I mRNA in HepG2 cells (real-time PCR). Conditions: fold induction relative to DMSO control, concentration less than or equal to 100 μM. More on the design: key: Active: An active compound was defined as one that caused a ≧20% increase in ApoA-I mRNA at a concentration less than or equal to 100 μM. The assay is classed as cell-based. The method, then: In this example, ApoA-I mRNA in tissue culture cells was quantitated to measure the transcriptional up-regulation of ApoA-I when treated with a compound of the invention.
HepG2 cells (approximately 2×10^5 per well) were placed in a 24-well plate in approximately 400 μL MEM, supplemented with 0.5% (v/v) FBS, 24 h before addition of the compound of interest. At time of harvesting, the spent media was removed from the HepG2 cells and immediately placed on ice (for immediate use) or at −80° C. (for future use) in ApoA-I and albumin ELISAs. The cells remaining in the plate wells were rinsed in 200 μL PBS. PBS was carefully removed to avoid removing any loosely attached cells.
Once the PBS was removed, 85 μL cell lysis solution was added the cells in each well and incubated for 5-10 minutes at room temperature, to allow for complete cell lysis and detachment. mRNA was then prepared using the “mRNA Catcher PLUS plate” from Invitrogen, according to the protocol supplied. After the last wash, as much wash buffer as possible was aspirated without allowing the wells to dry. Elution Buffer (E3, 80 μL) was then added to each well. mRNA was then eluted by incubating the mRNA Catcher PLUS plate with Elution Buffer for 5 minutes at 68° C. and then immediately placing the plate on ice.
The eluted mRNA isolated was then used in a one-step real-time […] reaction, using components of the Ultra Sense Kit together with Applied Biosystems primer-probe mixes. Real-time PCR data was analyzed, using the Ct values, to determine the fold induction of each unknown sample, relative to the control (that is, relative to the control for each independent DMSO concentration).
An active compound was defined as one that caused a ≧20% increase in ApoA-I mRNA at a concentration less than or equal to 100 μM.
For orientation: In qPCR the cycle at which signal appears reflects the starting amount.
As to `O=c1c2ccccc2nc(-c2ccc(Oc3ccccc3)nc2)n1-c1ccc(Cl)cc1` [Example 50, 3-(4-chlorophenyl)-2-(6-phenoxypyridin-3-yl)quinazolin-4(3H)-one], the “Effect on ApoA-I mRNA levels” value is “Active”. Turning to `Cc1ccc(-c2nc3ccccc3c(=O)n2-c2ccc(C3CC3)cc2)cn1` [Example 68, 3-(4-cyclopropylphenyl)-2-(6-methylpyridin-3-yl)quinazolin-4(3H)-one], the “Effect on ApoA-I mRNA levels” value was “Active”. With `Cc1cc(-c2nc3ccccc3c(=O)n2-c2ccc(NS(C)(=O)=O)cc2)cc(C)c1OCCO` [Example 29, N-(4-(2-(4-(2-hydroxyethoxy)-3,5-dimethylphenyl)-4-oxoquinazolin-3(4H)-yl)phenyl)methanesulfonamide], the “Effect on ApoA-I mRNA levels” value is given as “Active”. For the compound `O=c1c2ccccc2nc(-c2ccc(Cl)nc2)n1-c1ccc(Cl)cc1` [Example 38, 3-(4-chlorophenyl)-2-(6-chloropyridin-3-yl)quinazolin-4(3H)-one], the “Effect on ApoA-I mRNA levels” value was “Active”. With `CSc1ccc(-n2c(-c3ccc(C)nc3)nc3ccccc3c2=O)cc1` [Example 64, 2-(6-methylpyridin-3-yl)-3-(4-(methylthio)phenyl)quinazolin-4(3H)-one], the “Effect on ApoA-I mRNA levels” value is “Active”.

Consider `CCC(C)c1ccc(-n2c(-c3cc(C)c(OCCO)c(C)c3)nc3ccc(F)cc3c2=O)cc1` (stereo not drawn) [Example 9, 3-(4-sec-butylphenyl)-6-fluoro-2-(4-(2-hydroxyethoxy)-3,5-dimethylphenyl)quinazolin-4(3H)-one], for which the “Effect on ApoA-I mRNA levels” value was “Active”.

As for `CCC(C)c1ccc(-n2c(-c3ccc(C(F)(F)F)nc3)nc3ccccc3c2=O)cc1` (stereo not drawn) [Example 54, 3-(4-sec-butylphenyl)-2-(6-(trifluoromethyl)pyridin-3-yl)quinazolin-4(3H)-one], the “Effect on ApoA-I mRNA levels” value is given as “Active”. Take `Cc1cc(-c2nc3ccccc3c(=O)n2-c2ccc(N)cc2)cc(C)c1OCCO` [Example 28, 3-(4-aminophenyl)-2-(4-(2-hydroxyethoxy)-3,5-dimethylphenyl)quinazolin-4(3H)-one]: the “Effect on ApoA-I mRNA levels” value is “Active”. Next, `Cc1ccc(-c2nc3ccccc3c(=O)n2-c2ccc(Cl)cc2)cn1` [Example 47, 3-(4-chlorophenyl)-2-(6-methylpyridin-3-yl)quinazolin-4(3H)-one]: “Active”.

Consider `CCC(C)c1ccc(-n2c(-c3ccc(OCCO)c(C)c3)nc3ccccc3c2=O)cc1` (stereo not drawn) [Example 33, 3-(4-sec-butylphenyl)-2-(4-(2-hydroxyethoxy)-3-methylphenyl)quinazolin-4(3H)-one], for which the “Effect on ApoA-I mRNA levels” value is “Active”. On to `CCC(C)c1ccc(-n2c(-c3ccc4[nH]ccc4c3)nc3ccccc3c2=O)cc1` (stereo not drawn) [Example 74, 3-(4-sec-butylphenyl)-2-(1H-indol-5-yl)quinazolin-4(3H)-one], for which the “Effect on ApoA-I mRNA levels” value is reported as “Active”. For the compound `CCC(C)c1ccc(-n2c(-c3ccc(CO)nc3)nc3ccccc3c2=O)cc1` (stereo not drawn) [Example 63, 3-(4-sec-butylphenyl)-2-(6-(hydroxymethyl)pyridin-3-yl)quinazolin-4(3H)-one], the “Effect on ApoA-I mRNA levels” value is “Active”. Consider `Cc1cc(-c2nc3ccccc3c(=O)n2-c2ccc(NS(=O)(=O)C(C)C)cc2)cc(C)c1OCCO` [Example 31, N-(4-(2-(4-(2-hydroxyethoxy)-3,5-dimethylphenyl)-4-oxoquinazolin-3(4H)-yl)phenyl)propane-2-sulfonamide], for which the “Effect on ApoA-I mRNA levels” value is “Active”. As to `O=c1c2ccccc2nc(-c2ccc3[nH]ccc3c2)n1-c1ccc(OC(F)(F)F)cc1` [Example 76, 2-(1H-indol-5-yl)-3-(4-(trifluoronnethoxy)phenyl)quinazolin-4(3H)-one], the “Effect on ApoA-I mRNA levels” value is recorded as “Active”.

As to `CC(=O)Nc1ccc(-n2c(-c3cc(C)c(OCCO)c(C)c3)nc3ccccc3c2=O)cc1` [Example 23, N-(4-(2-(4-(2-hydroxyethoxy)-3,5-dimethylphenyl)-4-oxoquinazolin-3(4H)-yl)phenyl)acetamide], the “Effect on ApoA-I mRNA levels” value is “Active”. For `CCC(C)c1ccc(-n2c(-c3cncc(Br)c3)nc3ccccc3c2=O)cc1` (stereo not drawn) [Example 57, 2-(5-bromopyridin-3-yl)-3-(4-sec-butylphenyl)quinazolin-4(3H)-one], the “Effect on ApoA-I mRNA levels” value is listed as “Active”.

For the compound `COc1ccc(S(=O)(=O)n2ccc3cc(-c4nc5ccccc5c(=O)n4-c4ccc(Cl)cc4)cnc32)cc1` [Example 78, 3-(4-chlorophenyl)-2-(1-(4-methoxyphenylsulfonyl)-1H-pyrrolo[2,3-b]pyridin-5-yl)quinazolin-4(3H)-one], the “Effect on ApoA-I mRNA levels” value is recorded as “Active”. `CCC(C)c1ccc(-n2c(-c3cncc(F)c3)nc3ccccc3c2=O)cc1` (stereo not drawn) [Example 37, 3-(4-sec-butylphenyl)-2-(5-fluoropyridin-3-yl)quinazolin-4(3H)-one]: the “Effect on ApoA-I mRNA levels” value is on record as “Active”.

`CCC(C)c1ccc(-n2c(-c3cccc4[nH]ccc34)nc3ccccc3c2=O)cc1` (stereo not drawn) [Example 90, 3-(4-sec-butylphenyl)-2-(1H-indol-4-yl)quinazolin-4(3H)-one]: the “Effect on ApoA-I mRNA levels” value is “Active”.

Take `O=c1c2ccccc2nc(-c2cnc3c(ccn3S(=O)(=O)c3ccc(F)cc3)c2)n1-c1ccc(Cl)cc1` [Example 79, 3-(4-chlorophenyl)-2-(1-(4-fluorophenylsulfonyl)-1H-pyrrolo[2,3-b]pyridin-5-yl)quinazolin-4(3H)-one]: the “Effect on ApoA-I mRNA levels” value is “Active”. For `CCC(C)c1ccc(-n2c(-c3cncc(-c4ccccc4)c3)nc3ccccc3c2=O)cc1` (stereo not drawn) [Example 56, 3-(4-sec-butylphenyl)-2-(5-phenylpyridin-3-yl)quinazolin-4(3H)-one], the “Effect on ApoA-I mRNA levels” value is “Active”. In the case of `Cc1cc(-c2nc3ccccc3c(=O)n2-c2ccc(C3CCCCC3)cc2)cc(C)c1OCCO` [Example 26, 3-(4-cyclohexylphenyl)-2-(4-(2-hydroxyethoxy)-3,5-dimethylphenyl)quinazolin-4(3H)-one], the “Effect on ApoA-I mRNA levels” value was “Active”.

For the compound `CCC(C)c1ccc(-n2c(-c3ccc(Br)nc3)nc3ccccc3c2=O)cc1` (stereo not drawn) [Example 42, 2-(6-bromopyridin-3-yl)-3-(4-sec-butylphenyl)quinazolin-4(3H)-one], the “Effect on ApoA-I mRNA levels” value is recorded as “Active”.

For the compound `Cc1cc(-c2nc3ccccc3c(=O)n2-c2ccc(N(C)C)cc2)cc(C)c1OCCO` [Example 32, 3-(4-(dimethylamino)phenyl)-2-(4-(2-hydroxyethoxy)-3,5-dimethylphenyl)quinazolin-4(3H)-one], the “Effect on ApoA-I mRNA levels” value was “Active”. As to `CCC(C)c1ccc(-n2c(-c3ccc(F)nc3)nc3ccccc3c2=O)cc1` (stereo not drawn) [Example 51, 3-(4-sec-butylphenyl)-2-(6-fluoropyridin-3-yl)quinazolin-4(3H)-one], the “Effect on ApoA-I mRNA levels” value was “Active”. Next, `Cc1cc(-c2nc3ccccc3c(=O)n2-c2ccc(N3CCOCC3)cc2)cc(C)c1OCCO` [Example 21, 2-(4-(2-hydroxyethoxy)-3,5-dimethylphenyl)-3-(4-morpholinophenyl)quinazolin-4(3H)-one]: “Active”; `O=c1c2ccccc2nc(-c2ccc(N3CCCCC3)nc2)n1-c1ccc(Cl)cc1` [Example 48, 3-(4-chlorophenyl)-2-(6-(piperidin-1-yl)pyridin-3-yl)quinazolin-4(3H)-one]: “Active”; `CCC(C)c1ccc(-n2c(-c3ccc4cc[nH]c4c3)nc3ccccc3c2=O)cc1` (stereo not drawn) [Example 87, 3-(4-sec-butylphenyl)-2-(1H-indol-6-yl)quinazolin-4(3H)-one]: “Active”.

As for `CCC(C)c1ccc(-n2c(-c3cncc(N(CC)CC)c3)nc3ccccc3c2=O)cc1` (stereo not drawn) [Example 59, 3-(4-sec-butylphenyl)-2-(5-(diethylamino)pyridin-3-yl)quinazolin-4(3H)-one], the “Effect on ApoA-I mRNA levels” value is on record as “Active”. On to `O=c1c2ccccc2nc(-c2cnc3ccccc3c2)n1-c1ccc(Cl)cc1` [Example 36, 3-(4-chlorophenyl)-2-(quinolin-3-yl)quinazolin-4(3H)-one], for which the “Effect on ApoA-I mRNA levels” value was “Active”.

Turning to `Cn1ccc2cc(-c3nc4ccccc4c(=O)n3-c3ccc(Cl)cc3)ccc21` [Example 83, 3-(4-chlorophenyl)-2-(1-methyl-1H-indol-5-yl)quinazolin-4(3H)-one], the “Effect on ApoA-I mRNA levels” value is recorded as “Active”. For the compound `CCC(C)c1ccc(-n2c(-c3cc(C)c(OCCO)c(C)c3)nc3ccccc3c2=O)cc1` (stereo not drawn) [1 and 2, 3-(4-sec-butylphenyl)-2-(4-(2-hydroxyethoxy)-3,5-dimethylphenyl)quinazolin-4(3H)-one], the “Effect on ApoA-I mRNA levels” value was “Active”.

For `O=c1c2ccccc2nc(-c2cccc3cc[nH]c23)n1-c1ccc(Cl)cc1` [Example 86, 3-(4-chlorophenyl)-2-(1H-indol-7-yl)quinazolin-4(3H)-one], the “Effect on ApoA-I mRNA levels” value is listed as “Active”.

Values taken from patent US8952021B2, “Compounds for the prevention and treatment of cardiovascular disease” (Resverlogix Corp., priority 2009, dated 2015).
